Type in all cases: in vivo, C57BL/6 mice
In experiment [1] the test system is bleomycin-induced pulmonary fibrosis model. Kind of experiment: Early pulmonary fibrosis: bleomycin-induced model, dosing from one week after modelling. As to conditions: for Leucocyte / Neutrophil / Ashcroft scores / Lymphocyte: early pulmonary fibrosis, 120 mg/kg/d intragastric, 14 days, from one week after model; for Leucocyte / Neutrophil / Lymphocyte: blood, Day 15, twice every day; for Ashcroft scores: lung tissue HE staining; for inhibition (anti-inflammatory) effect on leucocytes, neutrophils and lymphocytes in blood: mice with early pulmonary fibrosis, result in words.

For experiment [2] the test system is unchanged. Kind of experiment: Comparison with comparative drugs: bleomycin-induced model, hydroxyproline and TGF-β. The settings on record: 120 mg/kg/d intragastric, twice every day, 14 days, from two weeks after model; Day 15.
The subject of experiment [3] is influenza B virus-induced pulmonary fibrosis model (influenza B (H7N9) virus). The settings on record: 120 mg/kg/d intragastric, 14 days; for Ashcroft scores: influenza B virus + bleomycin, lung tissue HE; for IL-1β / NF-κB / TNF-α / IL-6: serum, from two weeks after model; for IL-1β / NF-κB / TNF-α: influenza B (H7N9) + bleomycin; for IL-6: influenza B + bleomycin.

Experiment [4] concerns coronavirus-induced pulmonary fibrosis model (HcoV-OC43). The experiment is described as follows: Coronavirus-induced pulmonary fibrosis model. As to conditions: 120 mg/kg/d intragastric, 14 days; for Ashcroft scores: coronavirus HcoV-OC43 + bleomycin, lung tissue HE; for IL-1β / IL-6 / NF-κB / TNF-α: serum, HcoV-OC43 + bleomycin, from two weeks after model. The procedure, abridged: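 C57BL/6 mice (22–25 g, 9 per group) were infected intranasally with HcoV-OC43 on day 1, then given intratracheal bleomycin 5 mg/kg on day 2. Two weeks later, compounds were given intragastrically at 120 mg/kg/d for 14 days. Endpoints: weight, deaths, serum NF-κB, TNF-α, IL-1 and IL-6, lung HE and Ashcroft scoring.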

Experiment [5] deals with novel coronavirus-induced pulmonary fibrosis model (COVID-19 novel coronavirus strains). The experiment is described as follows: Novel coronavirus-induced pulmonary fibrosis model. As to conditions: 120 mg/kg/d intragastric, 14 days; for Ashcroft scores: novel coronavirus + bleomycin, lung tissue HE; for IL-1β / IL-6 / NF-κB / TNF-α: serum, COVID-19 novel coronavirus + bleomycin, from two weeks after model.

Read-outs that look alike come from different tables or passages of the source.

`CC(C)Oc1ncnc2c1ncn2C` [Hypoxanthine analogue B, reference compound]: in experiment [1], the Leucocyte was 49.97 10^9/L; the Neutrophil is on record as 36.88 10^9/L; the Ashcroft scores is on record as 5.39; the “inhibition (anti-inflammatory) effect on leucocytes, neutrophils and lymphocytes in blood” value (“inhibition (anti-inflammatory) effect” for short) is listed as “obviously inferior”. Further, in experiment [2], the “Hydroxyproline in bronchoalveolar lavage fluids” value was 1.81 ± 0.14 µg/mg, the “Hydroxyproline in lung tissues” value was 2.97 ± 0.19 µg/mg, the “TGF-β in bronchoalveolar lavage fluids” value was found to be 8.95 ± 0.68 µg/L and the “TGF-β in lung tissues” value was 91.53 ± 9.56 µg/L. In experiment [3], the Ashcroft scores is recorded as 6.21, the IL-1β is given as 240.6 pg/mL, the NF-κB is listed as 627.1 pg/mL and the TNF-α is 190.2 pg/mL. Besides, the IL-6 in experiment [3] is on record as 193.1 pg/mL. Besides, in experiment [4], the Ashcroft scores amounted to 6.12, the IL-1β is 560.6 pg/mL, the IL-6 is on record as 522.2 pg/mL and the NF-κB was 730.1 pg/mL. Further, the TNF-α in experiment [4] is recorded as 454.4 pg/mL. Moreover, in experiment [5], the Ashcroft scores came to 6.38, the IL-1β amounted to 491.8 pg/mL, the IL-6 is recorded as 552.3 pg/mL and the NF-κB came to 741.1 pg/mL. Moreover, the TNF-α in experiment [5] is recorded as 401.9 pg/mL.

Consider `COc1ncnc2c1ncn2C(C)C` [Hypoxanthine analogue C, reference compound], for which, in experiment [1] (120 mg/kg/day), the Leucocyte is 50.11 10^9/L, the Lymphocyte was 50.06 10^9/L, the Neutrophil was 37.04 10^9/L and the Ashcroft scores is 5.46. Moreover, in experiment [1], the “inhibition (anti-inflammatory) effect” value is given as “obviously inferior”. For the same compound, in experiment [2], the “Hydroxyproline in bronchoalveolar lavage fluids” value turned out to be 1.12 ± 0.15 µg/mg, the “Hydroxyproline in lung tissues” value came out at 2.85 ± 0.25 µg/mg, the “TGF-β in bronchoalveolar lavage fluids” value is 7.42 ± 1.4 µg/L and the “TGF-β in lung tissues” value was determined as 63.83 ± 7.52 µg/L. Moreover, in experiment [3] (120 mg/kg/day), the Ashcroft scores was found to be 6.15, the IL-1β is reported as 241.9 pg/mL, the NF-κB came to 632.4 pg/mL and the TNF-α was 198.9 pg/mL. Besides, the IL-6 in experiment [3] (120 mg/kg/day) turned out to be 194.9 pg/mL. In experiment [4] (120 mg/kg/day), the Ashcroft scores amounted to 6.31, the IL-1β was determined as 530.1 pg/mL, the IL-6 was 530.9 pg/mL and the NF-κB is given as 729.6 pg/mL. The TNF-α in experiment [4] (120 mg/kg/day) came to 449.1 pg/mL. In experiment [5] (120 mg/kg/day), the Ashcroft scores is 6.71, the IL-1β came out at 572.7 pg/mL, the IL-6 was 543.7 pg/mL and the NF-κB was 739.2 pg/mL. Also, the TNF-α in experiment [5] (120 mg/kg/day) was 542.4 pg/mL.

As for `COC(=O)c1ccc2c(c1)NC(=O)/C2=C(\Nc1ccc(N(C)C(=O)CN2CCN(C)CC2)cc1)c1ccccc1` [Nintedanib, reference compound], in experiment [1], the Leucocyte was 33.76 10^9/L, the Lymphocyte is reported as 33.87 10^9/L, the Neutrophil is listed as 31.32 10^9/L and the Ashcroft scores is 3.69. Further, the “inhibition (anti-inflammatory) effect” value in experiment [1] is recorded as “obviously inferior”. In experiment [2], the “Hydroxyproline in bronchoalveolar lavage fluids” value stood at 1.25 ± 0.14 µg/mg, the “Hydroxyproline in lung tissues” value turned out to be 2.36 ± 0.12 µg/mg, the “TGF-β in bronchoalveolar lavage fluids” value worked out at 7.11 ± 0.24 µg/L and the “TGF-β in lung tissues” value is 75.32 ± 7.51 µg/L. Moreover, in experiment [3], the Ashcroft scores is reported as 4.08, the IL-1β is 166.3 pg/mL, the NF-κB worked out at 529.7 pg/mL and the TNF-α came to 141.3 pg/mL. Besides, the IL-6 in experiment [3] was 176.1 pg/mL. For the same compound, in experiment [4], the Ashcroft scores is recorded as 4.11, the IL-1β came to 525.3 pg/mL, the IL-6 came out at 421.5 pg/mL and the NF-κB is on record as 521.3 pg/mL. Besides, the TNF-α in experiment [4] is recorded as 411.3 pg/mL. In experiment [5], the Ashcroft scores was 6.04, the IL-1β is on record as 561.2 pg/mL, the IL-6 amounted to 523.7 pg/mL and the NF-κB amounted to 732.7 pg/mL. Moreover, the TNF-α in experiment [5] is on record as 539.8 pg/mL.

Source of the values: patent publication US20250188082A1, “Use of Hypoxanthine Compound In Preparation of Drug For Treating Pulmonary Fibrosis” (Sichuan Yiasuo Pharmaceutical Technology Co., Ltd., priority 2022, published 2025).
